Test results reported in US7879881B2, “Piperidinyl compounds that selectively bind integrins” (Janssen Pharmaceutica NV, priority 2002, dated 2011).
Where two headings read alike, the source gives them in different places.

What was measured:
[1] = target: T1, Human αvβ3 (Homo sapiens, UniProt P05106+P06756); test: In Vitro Solid Phase Purified αvβ3 Binding Assay (vitronectin/αvβ3); conditions: vitronectin binding to immobilized purified human αvβ3, mean ± spread
T1 construct: purchased Chemicon International Inc., Temecula, Calif
T1 sequence (P06756 31-889 limits assumed): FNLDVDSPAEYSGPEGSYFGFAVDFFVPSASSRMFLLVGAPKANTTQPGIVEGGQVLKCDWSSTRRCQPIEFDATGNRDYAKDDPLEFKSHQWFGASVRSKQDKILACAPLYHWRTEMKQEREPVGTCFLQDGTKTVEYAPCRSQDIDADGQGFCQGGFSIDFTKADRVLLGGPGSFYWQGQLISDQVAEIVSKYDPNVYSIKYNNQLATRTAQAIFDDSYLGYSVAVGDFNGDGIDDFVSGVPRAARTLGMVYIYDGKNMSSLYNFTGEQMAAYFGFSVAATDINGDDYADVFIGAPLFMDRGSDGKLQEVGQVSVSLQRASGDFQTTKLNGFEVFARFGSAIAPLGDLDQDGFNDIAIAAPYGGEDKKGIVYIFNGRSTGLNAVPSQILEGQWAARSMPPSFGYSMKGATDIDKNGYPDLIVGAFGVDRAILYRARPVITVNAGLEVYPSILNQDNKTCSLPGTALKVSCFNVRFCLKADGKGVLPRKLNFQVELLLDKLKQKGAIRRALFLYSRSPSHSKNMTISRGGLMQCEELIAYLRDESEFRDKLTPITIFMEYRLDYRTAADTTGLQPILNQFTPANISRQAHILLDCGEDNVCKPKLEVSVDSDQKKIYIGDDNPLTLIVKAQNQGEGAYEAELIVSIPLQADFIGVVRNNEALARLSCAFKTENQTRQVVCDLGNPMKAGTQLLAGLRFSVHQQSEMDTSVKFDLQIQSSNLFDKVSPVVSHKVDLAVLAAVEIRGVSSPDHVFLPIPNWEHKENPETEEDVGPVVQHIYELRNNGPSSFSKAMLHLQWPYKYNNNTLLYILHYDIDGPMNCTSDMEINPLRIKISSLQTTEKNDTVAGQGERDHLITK
T1 sequence (P06756 891-1048 partner limits assumed): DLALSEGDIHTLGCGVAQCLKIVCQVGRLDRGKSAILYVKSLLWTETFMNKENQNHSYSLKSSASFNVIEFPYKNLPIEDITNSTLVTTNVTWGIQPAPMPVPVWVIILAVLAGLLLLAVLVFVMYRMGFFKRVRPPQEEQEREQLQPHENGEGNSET
T1 sequence (P05106 27-788): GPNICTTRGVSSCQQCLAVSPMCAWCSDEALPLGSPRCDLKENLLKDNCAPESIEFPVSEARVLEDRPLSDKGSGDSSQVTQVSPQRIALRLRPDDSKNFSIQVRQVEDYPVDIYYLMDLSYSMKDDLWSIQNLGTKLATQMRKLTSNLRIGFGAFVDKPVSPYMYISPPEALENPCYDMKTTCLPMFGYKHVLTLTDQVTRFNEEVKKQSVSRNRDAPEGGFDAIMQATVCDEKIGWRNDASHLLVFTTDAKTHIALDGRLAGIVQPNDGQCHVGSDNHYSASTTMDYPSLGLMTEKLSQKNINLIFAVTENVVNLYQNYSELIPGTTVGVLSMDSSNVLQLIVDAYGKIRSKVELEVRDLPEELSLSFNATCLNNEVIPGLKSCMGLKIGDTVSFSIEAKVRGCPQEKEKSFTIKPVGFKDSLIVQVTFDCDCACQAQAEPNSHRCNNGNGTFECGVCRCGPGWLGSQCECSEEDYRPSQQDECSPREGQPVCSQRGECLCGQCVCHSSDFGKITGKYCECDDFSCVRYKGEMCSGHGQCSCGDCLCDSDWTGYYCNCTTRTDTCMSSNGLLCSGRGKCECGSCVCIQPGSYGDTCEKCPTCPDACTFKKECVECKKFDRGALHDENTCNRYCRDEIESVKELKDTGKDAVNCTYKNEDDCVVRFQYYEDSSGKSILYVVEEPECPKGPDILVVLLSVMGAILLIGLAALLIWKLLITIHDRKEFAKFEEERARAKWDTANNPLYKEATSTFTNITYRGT
Experimental: In Vitro Solid Phase Purified αvβ3 Binding Assay
(§1) Human αvβ3 (Chemicon International Inc., Temecula, Calif.), at a concentration of 1 μg/ml dissolved in Tris buffer (20 mM Tris, 1 mM CaCl2, 1 mM MgCl2, 10 μM MnCl2, 150 mM NaCl), was immobilized on Immulon 96 well plates (Dynex Technologies, Chantilly, Va.) overnight at 4° C. Plates were washed and treated with blocking buffer (3% BSA in Tris buffer) for 2 h at 37° C. Plates were then rinsed 2 times with assay buffer comprised of Tris buffer. Synthesized compounds were added to wells in duplicate immediately prior to the addition of 2 nM vitronectin (Sigma, St. Louis, Mo.). Following a 3 hour incubation at 37° C., plates were washed 5 times in assay buffer. An anti-human vitronectin IgG rabbit polyclonal antibody (Calbiochem, San Diego, Calif.) was added (1:2000) and plates were incubated for 1 hour at room temperature. VectaStain ABC peroxidase kit reagents (Vector Laboratories, Burlingame, Calif.) employing a biotin labeled anti-rabbit IgG, were utilized for detection of bound antibody. Plates were read at 490 nm on a Molecular Devices (Sunnyvale, Calif.) microplate reader.

[2] = target: GP IIb/IIIa (Homo sapiens, UniProt P05106+P08514); test: In Vitro Solid Phase Purified GP IIb/IIIa Binding Assay (biotinylated fibrinogen); conditions: biotinylated fibrinogen binding to immobilized purified GP IIb/IIIa, mean ± spread
Sequence of GP IIb/IIIa (P08514 32-887 limits assumed): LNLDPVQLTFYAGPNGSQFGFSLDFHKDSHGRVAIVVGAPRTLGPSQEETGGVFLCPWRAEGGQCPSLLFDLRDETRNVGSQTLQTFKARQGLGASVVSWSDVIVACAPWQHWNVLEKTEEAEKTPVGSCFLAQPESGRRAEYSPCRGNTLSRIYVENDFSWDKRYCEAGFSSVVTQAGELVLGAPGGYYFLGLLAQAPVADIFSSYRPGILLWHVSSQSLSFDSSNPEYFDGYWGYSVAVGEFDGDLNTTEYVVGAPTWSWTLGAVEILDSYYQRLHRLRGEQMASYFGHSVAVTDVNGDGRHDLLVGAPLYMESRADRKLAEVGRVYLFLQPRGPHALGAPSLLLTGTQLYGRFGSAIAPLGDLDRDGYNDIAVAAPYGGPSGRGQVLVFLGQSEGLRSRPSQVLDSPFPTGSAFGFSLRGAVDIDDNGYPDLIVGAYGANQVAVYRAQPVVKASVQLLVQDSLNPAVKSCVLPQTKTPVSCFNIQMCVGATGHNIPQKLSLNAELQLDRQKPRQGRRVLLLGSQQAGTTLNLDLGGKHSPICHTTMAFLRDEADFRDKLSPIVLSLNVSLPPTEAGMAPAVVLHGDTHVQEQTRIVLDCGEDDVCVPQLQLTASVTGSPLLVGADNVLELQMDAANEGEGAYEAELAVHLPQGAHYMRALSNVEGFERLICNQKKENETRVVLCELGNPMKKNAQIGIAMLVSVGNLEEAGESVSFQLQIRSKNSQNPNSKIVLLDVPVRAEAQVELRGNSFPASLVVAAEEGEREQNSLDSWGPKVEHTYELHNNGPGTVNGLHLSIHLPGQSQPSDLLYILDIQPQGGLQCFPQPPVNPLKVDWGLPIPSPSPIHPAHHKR
Sequence of GP IIb/IIIa (P08514 891-1039 partner limits assumed): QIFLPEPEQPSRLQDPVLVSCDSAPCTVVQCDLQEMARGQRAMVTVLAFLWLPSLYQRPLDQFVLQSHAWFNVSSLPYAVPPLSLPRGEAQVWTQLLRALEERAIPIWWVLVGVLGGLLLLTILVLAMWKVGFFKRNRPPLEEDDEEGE
Sequence of GP IIb/IIIa (P05106 27-788): as the sequence (P05106 27-788) above
Experimental: In Vitro Solid Phase Purified GP IIb/IIIa Binding Assay
The plate was covered and incubated overnight at 4° C. The GP IIb/IIIa solution was discarded and 150 μL of 5% BSA was added and incubated at RT for 1-3 h. The plate was washed extensively with modified Tyrodes buffer. Biotinylated fibrinogen (25 μL/well) at 2× final concentration was added to the wells that contain the test compounds (25 μL/well). The plate was covered and incubated at RT for 2-4 h. Twenty minutes prior to incubation completion, one drop of Reagent A (VectaStain ABC Horseradish Peroxidase kit, Vector Laboratories, Inc.) and one drop Reagent B were added with mixing to 5 mL modified Tyrodes buffer mix and let stand. The ligand solution was discarded and the plate washed (5×200 μL/well) with modified Tyrodes buffer. […] The Vecta Stain solution was discarded and the wells washed (5×200 μL/well) with modified Tyrodes buffer. Developing buffer (10 mL of 50 mM citrate/phosphate buffer @ pH 5.3, 6 mg o-phenylenediamine, 6 μL 30% H2O2; 50 μL/well) was added and incubated at RT for 3-5 min and then 2 N H2SO4 (50 μL/well) was added.

[3] = target: T2, human purified αVβ5 (Homo sapiens, UniProt P06756+P18084); test: In Vitro Solid Phase Purified αcβ5 Binding Assay (vitronectin/αVβ5); conditions: vitronectin binding to immobilized purified human αVβ5, mean ± spread
T2 construct: purchased Chemicon International, Inc
T2 sequence (P06756 31-889 limits assumed): as the sequence (P06756 31-889 limits assumed) above
T2 sequence (P06756 891-1048 partner limits assumed): as the sequence (P06756 891-1048 partner limits assumed) above
T2 sequence (P18084 24-799): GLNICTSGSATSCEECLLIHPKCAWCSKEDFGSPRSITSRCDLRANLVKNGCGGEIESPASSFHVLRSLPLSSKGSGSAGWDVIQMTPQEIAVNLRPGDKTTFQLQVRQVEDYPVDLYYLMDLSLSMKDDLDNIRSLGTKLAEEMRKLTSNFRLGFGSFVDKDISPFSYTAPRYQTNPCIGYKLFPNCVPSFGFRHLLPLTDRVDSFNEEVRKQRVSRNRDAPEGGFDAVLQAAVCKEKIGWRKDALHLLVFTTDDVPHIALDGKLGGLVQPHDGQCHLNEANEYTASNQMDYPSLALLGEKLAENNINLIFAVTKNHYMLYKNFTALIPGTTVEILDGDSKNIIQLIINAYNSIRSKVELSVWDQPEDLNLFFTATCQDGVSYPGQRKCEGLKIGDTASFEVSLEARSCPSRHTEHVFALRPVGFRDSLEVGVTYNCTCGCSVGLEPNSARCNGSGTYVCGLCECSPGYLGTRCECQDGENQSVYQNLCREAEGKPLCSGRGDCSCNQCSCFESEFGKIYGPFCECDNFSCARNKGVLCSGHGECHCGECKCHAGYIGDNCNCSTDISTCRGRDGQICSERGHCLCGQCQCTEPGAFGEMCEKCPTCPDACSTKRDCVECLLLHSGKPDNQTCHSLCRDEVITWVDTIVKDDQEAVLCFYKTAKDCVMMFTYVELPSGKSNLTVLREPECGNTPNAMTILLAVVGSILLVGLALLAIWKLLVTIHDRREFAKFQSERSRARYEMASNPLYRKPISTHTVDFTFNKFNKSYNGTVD
Experimental: as §1
In Vitro Solid Phase Purified αcβ5 Binding Assay
All other aspects of the assay including buffers, reagents and incubation times remain unchanged.

Row | Structure (SMILES) | IC50 ([1]; αvβ3IC50 (uM)) | IC50 ([2]; αIIbβ3 IC50 (uM)) | IC50 ([3]; αvβ5 IC50 (uM)) | IC50 ([1]; read-out: αvβ3IC50) | IC50 ([2]; read-out: αIIbβ3 IC50) | IC50 ([3]; read-out: αvβ5 IC50)
1 | O=C(O)CC(C1CCN(C(=O)CCCc2ccc3c(n2)NCCC3)CC1)C1CNc2ccccc2C1 (stereo not drawn) [Cpd 5, 1,2,3,4-Tetrahydro-β-[1-[1-oxo-4-(5,6,7,8-tetrahydro-1,8-naphthyridin-2-yl)butyl]-4-piperidinyl]-3-quinolinepropanoic acid] | 0.0037 ± 0.0014 µM | 14.8 ± 0.68 µM | 0.261 ± 0.0569 µM | – | – | –
2 | O=C(O)CC(CC1CCN(C(=O)CCc2ccc3c(n2)NCCC3)CC1)c1ccc2c(c1)OCC2 (stereo not drawn) [Cpd 36, β-(2,3-dihydro-6-benzofuranyl)-1-[1-oxo-3-(5,6,7,8-tetrahydro-1,8-naphthyridin-2-yl)propyl]-4-piperidinebutanoic acid] | – | – | – | 0.0008 ± 6e-05 µM | 3.11 ± 0.04 µM | 0.0007 ± 0.0002 µM
3 | O=C(O)CC(CCC1CCN(C(=O)Cc2ccc3c(n2)NCCC3)CC1)c1ccc2c(c1)OCO2 (stereo not drawn) [Cpd 55, β-(1,3-benzodioxol-5-yl)-1-[(5,6,7,8-tetrahydro-1,8-naphthyridin-2-yl)acetyl]-4-piperidinepentanoic acid] | – | – | – | 0.095 µM | 15.6 µM | 0.737 µM
4 | CC(C)OC(=O)CCCC1CCN(C(=O)CCc2ccc3c(n2)NCCC3)CC1 [Cpd 69, 4-[1-(3-5,6,7,8-Tetrahydro-[1,8]naphthyridin-2-yl-propionyl)-piperidin-4-yl]-butyric acid isopropyl ester] | – | – | – | > 0.5 µM | > 50 µM | > 1 µM
5 | O=C(O)CC(CCC1CCN(C(=O)c2cccc(NC3=NCC(O)CN3)c2)CC1)c1cccnc1 (stereo not drawn) [Cpd 7, β-[2-[1-[3-[(1,4,5,6-Tetrahydro-5-hydroxy-2-pyrimidinyl)amino]benzoyl]-4-piperidinyl]ethyl]-3-pyridinepropanoic acid] | – | – | – | 0.0082 ± 0.0014 µM | 1.67 ± 0.74 µM | 0.0395 ± 0.0085 µM
6 | O=C(O)CC(CC1CCN(C(=O)CCc2ccc3c(n2)NCCC3)CC1)c1ccc2c(c1)OCO2 (stereo not drawn) [Cpd 11, β-(1,3-Benzodioxol-5-yl)-1-[1-oxo-3-(5,6,7,8-tetrahydro-1,8-naphthyridin-2-yl)propyl]-4-piperidinebutanoic acid] | – | – | – | 0.0011 ± 0.0002 µM | 2.52 ± 0.3 µM | 0.0023 ± 0.0009 µM
7 | COc1ccc(C(CCC2CCN(C(=O)c3cccc(NC4=NCC(O)CN4)c3)CC2)CC(=O)O)cn1 (stereo not drawn) [Cpd 10, 6-Methoxy-β-[2-[1-[3-[(1,4,5,6-tetrahydro-5-hydroxy-2-pyrimidinyl)amino]benzoyl]-4-piperidinyl]ethyl]-3-pyridinepropanoic acid] | – | – | – | 0.0024 ± 0.0013 µM | 1.67 µM | 0.0335 ± 0.0075 µM
8 | CC(C)(C)C(=O)OCOC(=O)CCCC1CCN(C(=O)CCc2ccc3c(n2)NCCC3)CC1 [Cpd 74, 4-[1-(3-5,6,7,8-Tetrahydro-[1,8]naphthyridin-2-yl-propionyl)-piperidin-4-yl]-butyric acid 2,2-dimethyl-propionyloxymethyl ester] | – | – | – | 0.193 µM | > 50 µM | > 1 µM
9 | O=C(O)CC(CC1CCN(CCCc2ccc3c(n2)NCCC3)CC1)c1cccc(F)c1 (racemic) [Cpd 81, 3-(3-Fluoro-phenyl)-4-[1-(3-5,6,7,8-tetrahydro-[1,8]naphthyridin-2-yl-propyl]-piperidin-4-yl]-butyric acid] | – | – | – | 0.0067 ± 0.0002 µM | 22.7 µM | 0.0101 ± 0.0017 µM
10 | O=C(O)CC(CC1CCN(C(=O)CCc2ccc3c(n2)NCCC3)CC1)C1CNc2ccccc2C1 (single isomer, unassigned) [Cpd 19-4, 1,2,3,4-tetrahydro-β-[[1-[1-oxo-3-(5,6,7,8-tetrahydro-1,8-naphthyridin-2-yl)propyl]-4-piperidinyl]methyl]-3-quinolinepropanoic acid] | – | – | – | 0.0013 ± 0.0007 µM | 4.86 µM | 0.0075 ± 0.0018 µM
11 | O=C(O)CC(c1cnc2c(c1)CCCC2)C1CCN(C(=O)CCCc2ccc3c(n2)NCCC3)CC1 (single isomer, unassigned) [Cpd 58b, 5,6,7,8-Tetrahydro-β-[1-[1-oxo-4-(5,6,7,8-tetrahydro-1,8-naphthyridin-2-yl)butyl]-4-piperidinyl]-3-quinolinepropanoic acid] | – | – | – | 0.083 ± 0.02 µM | 35.5 µM | 0.576 ± 0.149 µM
